Results as given in PMC10150354, “Linearization of the Brevicidine and Laterocidine Lipopeptides Yields Analogues That Retain Full Antibacterial Activity” (Journal of Medicinal Chemistry, 2023).
≈ marks a conversion by molar mass, not a printed value. *1 amine or outer side, *2 acyl side, *3 side chain or, on linkers, in order; H or OH if unused. Where a SMILES comes first, the peptide text is derived from it. [ ]: non-standard residue; d: D form. The star is where a group is joined. ξ: configuration not given here. X1 = C[C@@H](N=[N+]=[N-])[C@H](N[*:1])C(=O)[*:2]; Octanoyl(7-Me) = CC(C)CCCCCC(=O)*; Hexanoyl(4ξ-Me) = CCC(C)CCC(=O)*; dOrn = NCCC[C@@H](N)C(=O)O; Orn = NCCC[C@H](N)C(=O)O

Columns and labels:
K. pneumoniae ATCC 13883 = format: cell-based, Klebsiella pneumoniae; details: microbroth dilution per CLSI, MHB, 18 h at 37 °C, visual inspection, three technical replicates
Method in brief: (§1)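 MIC taken as the lowest concentration with no visible growth after 18 h, 37 °C, shaking, three technical replicates. Peptides were serially diluted in MHB and received cells from TSB cultures at OD600 ~0.5, diluted to 2 × 10^5 CFU/mL (kanamycin selection for the mcr-1 E. coli), following CLSI guidelines.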

S. aureus USA300 = format: cell-based, Staphylococcus aureus; details: microbroth dilution per CLSI, MHB, 18 h at 37 °C, visual inspection, three technical replicates
Method in brief: as §1

P. aeruginosa PAO1 = format: cell-based, Pseudomonas aeruginosa; details: microbroth dilution per CLSI, MHB, 18 h at 37 °C, visual inspection, three technical replicates
Method in brief: as §1

A. baumannii ATCC 17961 = format: cell-based, Acinetobacter baumannii; details: microbroth dilution per CLSI, MHB, 18 h at 37 °C, visual inspection, three technical replicates
Method in brief: as §1

E. coli (MCR-1) = format: cell-based, Escherichia coli; details: microbroth dilution per CLSI, MHB, 18 h at 37 °C, visual inspection, three technical replicates, E. coli 25922 carrying mcr-1
Method in brief: as §1

E. coli ATCC 25922 = format: cell-based, Escherichia coli; details: for MIC (µg/mL) against E. coli (ATCC 25922): (Supplement 2); for Antibacterial activity (MIC) E. coli ATCC 25922: microbroth dilution per CLSI, MHB, 18 h at 37 °C, visual inspection, three technical replicates
Method in brief: as §1

Structure (SMILES)	Antibacterial activity (MIC) K. pneumoniae ATCC 13883 (K. pneumoniae ATCC 13883)	Antibacterial activity (MIC) S. aureus USA300 (S. aureus USA300)	Antibacterial activity (MIC) P. aeruginosa PAO1 (P. aeruginosa PAO1)	Antibacterial activity (MIC) A. baumannii ATCC 17961 (A. baumannii ATCC 17961)	Antibacterial activity (MIC) E. coli (MCR-1) (E. coli (MCR-1))	MIC (µg/mL) against E. coli (ATCC 25922) (E. coli ATCC 25922)	Antibacterial activity (MIC) E. coli ATCC 25922 (E. coli ATCC 25922)
CC[C@H](C)[C@H](NC(=O)[C@H](CCSC)NC(=O)[C@H](Cc1c[nH]c2ccccc12)NC(=O)[C@@H](CCCN)NC(=O)CNC(=O)[C@H](CCCN)NC(=O)[C@@H](CCCN)NC(=O)[C@@H](Cc1c[nH]c2ccccc12)NC(=O)[C@@H](Cc1ccc(O)cc1)NC(=O)[C@@H](CO)NC(=O)CCCCCC(C)C)C(=O)N[C@@H](CC(N)=O)C(=O)NCC(=O)NCC(N)=O [LL(Met9)-NH2 (44)] ({Octanoyl(7-Me)}-[dS][dY][dW][dOrn][Orn]G[dOrn]WMINGG-NH2)	4 mg/L	>32 mg/L	4 mg/L	4 mg/L	4 mg/L	4 µg/mL (≈ 2.42 µM)	4 mg/L
CC(C)CCCCCC(=O)N[C@H](CO)C(=O)N[C@H](Cc1ccc(O)cc1)C(=O)N[C@H](Cc1c[nH]c2ccccc12)C(=O)N[C@H](CCCN)C(=O)N[C@@H](CCCN)C(=O)NCC(=O)N[C@H](CCCN)C(=O)N[C@@H](Cc1c[nH]c2ccccc12)C(=O)N[C@H](C(=O)N[C@@H](C)C(=O)N[C@@H](CC(N)=O)C(=O)NCC(=O)NCC(N)=O)[C@@H](C)O [LL(Ala10)-NH2 (38)] ({Octanoyl(7-Me)}-[dS][dY][dW][dOrn][Orn]G[dOrn]WTANGG-NH2)	>32 mg/L	>32 mg/L	16 mg/L	>32 mg/L	>32 mg/L	–	>32 mg/L
CC[C@H](C)[C@H](NC(=O)[C@@H](NC(=O)[C@H](Cc1c[nH]c2ccccc12)NC(=O)[C@@H](CCCN)NC(=O)CNC(=O)[C@H](CCCN)NC(=O)[C@@H](CCCN)NC(=O)[C@@H](Cc1c[nH]c2ccccc12)NC(=O)[C@@H](Cc1ccc(O)cc1)NC(=O)[C@@H](CO)NC(=O)CCCCCC(C)C)[C@@H](C)O)C(=O)N[C@@H](CC(N)=O)C(N)=O [Δ12–13LL-NH2 (10)] ({Octanoyl(7-Me)}-[dS][dY][dW][dOrn][Orn]G[dOrn]WTIN-NH2)	8 to 16 mg/L	>32 mg/L	4 mg/L	4 mg/L	8 mg/L	–	4 mg/L
CCC(C)CCC(=O)N[C@H](CC(N)=O)C(=O)N[C@H](Cc1ccc(O)cc1)C(=O)N[C@H](Cc1c[nH]c2ccccc12)C(=O)N[C@H](CCCN)C(=O)N[C@@H](CCCN)C(=O)NCC(=O)N[C@H](CCCN)C(=O)N[C@@H](Cc1c[nH]c2ccccc12)C(=O)N[C@H](C(=O)N[C@H](C(=O)NCC(N)=O)[C@@H](C)CC)[C@@H](C)N=[N+]=[N-] (stereo partly shown) [Δ12LB (MeAbu9)-NH2 (60)] ({Hexanoyl(4ξ-Me)}-[dN][dY][dW][dOrn][Orn]G[dOrn]W[X1]IG-NH2)	2 mg/L	>32 mg/L	4 mg/L	2 mg/L	4 mg/L	8 µg/mL (≈ 5.42 µM)	4 mg/L
CC(C)CCCCCC(=O)N[C@H](CO)C(=O)N[C@H](Cc1ccc(O)cc1)C(=O)N[C@H](Cc1c[nH]c2ccccc12)C(=O)N[C@H](CCCN)C(=O)N[C@@H](CCCN)C(=O)NCC(=O)N[C@H](CCCN)C(=O)N[C@@H](Cc1c[nH]c2ccccc12)C(=O)N[C@H](C(N)=O)[C@@H](C)O [Δ10–13LL-NH2 (14)] ({Octanoyl(7-Me)}-[dS][dY][dW][dOrn][Orn]G[dOrn]WT-NH2)	>32 mg/L	>32 mg/L	>32 mg/L	32 mg/L	32 mg/L	–	>32 mg/L
CCC(C)CCC(=O)N[C@H](CC(N)=O)C(=O)N[C@H](Cc1ccc(O)cc1)C(=O)N[C@H](Cc1c[nH]c2ccccc12)C(=O)N[C@H](C)C(=O)N[C@@H](CCCN)C(=O)NCC(=O)N[C@H](CCCN)C(=O)N[C@@H](Cc1c[nH]c2ccccc12)C(=O)N[C@H](C(=O)N[C@H](C(=O)NCC(=O)N[C@@H](CO)C(N)=O)[C@@H](C)CC)[C@@H](C)O (stereo partly drawn) [LB(D-Ala4)-NH2 (20)] ({Hexanoyl(4ξ-Me)}-[dN][dY][dW][dA][Orn]G[dOrn]WTIGS-NH2)	>32 mg/L	>32 mg/L	32 mg/L	32 mg/L	>32 mg/L	–	>32 mg/L
CC[C@H](C)[C@H](NC(=O)[C@H](CO)NC(=O)[C@H](Cc1c[nH]c2ccccc12)NC(=O)[C@@H](CCCN)NC(=O)CNC(=O)[C@H](CCCN)NC(=O)[C@@H](CCCN)NC(=O)[C@@H](Cc1c[nH]c2ccccc12)NC(=O)[C@@H](Cc1ccc(O)cc1)NC(=O)[C@@H](CO)NC(=O)CCCCCC(C)C)C(=O)N[C@@H](CC(N)=O)C(=O)NCC(=O)NCC(N)=O [LL(Ser9)-NH2 (46)] ({Octanoyl(7-Me)}-[dS][dY][dW][dOrn][Orn]G[dOrn]WSINGG-NH2)	4 mg/L	>32 mg/L	4 mg/L	8 mg/L	8 mg/L	4 µg/mL (≈ 2.49 µM)	4 mg/L
CCC(C)CCC(=O)N[C@H](CC(N)=O)C(=O)N[C@H](Cc1ccc(O)cc1)C(=O)N[C@H](Cc1c[nH]c2ccccc12)C(=O)N[C@H](CCCN)C(=O)N[C@@H](CCCN)C(=O)NCC(=O)N[C@H](CCCN)C(=O)N[C@@H](Cc1c[nH]c2ccccc12)C(=O)N[C@@H](CC(N)=O)C(=O)N[C@H](C(=O)NCC(N)=O)[C@@H](C)CC (stereo partly shown) [Δ12LB (Asn9)-NH2 (58)] ({Hexanoyl(4ξ-Me)}-[dN][dY][dW][dOrn][Orn]G[dOrn]WNIG-NH2)	16 mg/L	>32 mg/L	2 mg/L	16 mg/L	8 mg/L	4 µg/mL (≈ 2.73 µM)	8 mg/L
CCC(C)CCC(=O)N[C@H](CC(N)=O)C(=O)N[C@H](Cc1ccc(O)cc1)C(=O)N[C@H](Cc1c[nH]c2ccccc12)C(=O)N[C@H](CCCN)C(=O)N[C@@H](CCCN)C(=O)NCC(=O)N[C@H](CCCN)C(=O)N[C@@H](Cc1c[nH]c2ccccc12)C(N)=O (stereo partly shown) [Δ9–12LB-NH2 (15)] ({Hexanoyl(4ξ-Me)}-[dN][dY][dW][dOrn][Orn]G[dOrn]W-NH2)	>32 mg/L	>32 mg/L	>32 mg/L	>32 mg/L	>32 mg/L	–	>32 mg/L
